Laboratory results from US20100287636A1, “COMPOSITIONS AND METHODS FOR INHIBITING INDUCIBLE T CELL KINASE (ITK) AND TREATING ASTHMA AND BRONCHIAL INFLAMMATIONS” (San Diego State University Foundation, dba San Diego State …, priority 2007, published 2010).
Each block holds one molecule with its values, some of them ahead of it. No end group written: not given here.

Experiments:
Jurkat cells = assay: viability measurements on Jurkat cells; format: cell-based; conditions: highest concentration tested
SH3 domain of ITK = target: T1, SH3 domain of ITK (Mus musculus, UniProt Q03526); conditions: chemical shift perturbation assays, reference (17); read-out: Kd of the in vitro interaction between peptide and the SH3 domain of ITK; cited from earlier work
T1 sequence (Q03526 177-237 limits assumed): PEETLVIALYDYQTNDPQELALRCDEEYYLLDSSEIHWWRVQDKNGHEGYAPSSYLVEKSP

ITK [1] = target: T2, ITK (Homo sapiens, UniProt Q08881); assay: phosphorylation of ITK on Tyr 511 in Jurkat cells (flow cytometry); format: cell-based; conditions: text does not separate Jurkat and mouse splenocytes, read-out: peptide concentration for fifty percent inhibition of ITK phosphorylation
T2 construct: endogenous in cells; host or cells: Jurkat T cells
T2 sequence (Q08881 1-620): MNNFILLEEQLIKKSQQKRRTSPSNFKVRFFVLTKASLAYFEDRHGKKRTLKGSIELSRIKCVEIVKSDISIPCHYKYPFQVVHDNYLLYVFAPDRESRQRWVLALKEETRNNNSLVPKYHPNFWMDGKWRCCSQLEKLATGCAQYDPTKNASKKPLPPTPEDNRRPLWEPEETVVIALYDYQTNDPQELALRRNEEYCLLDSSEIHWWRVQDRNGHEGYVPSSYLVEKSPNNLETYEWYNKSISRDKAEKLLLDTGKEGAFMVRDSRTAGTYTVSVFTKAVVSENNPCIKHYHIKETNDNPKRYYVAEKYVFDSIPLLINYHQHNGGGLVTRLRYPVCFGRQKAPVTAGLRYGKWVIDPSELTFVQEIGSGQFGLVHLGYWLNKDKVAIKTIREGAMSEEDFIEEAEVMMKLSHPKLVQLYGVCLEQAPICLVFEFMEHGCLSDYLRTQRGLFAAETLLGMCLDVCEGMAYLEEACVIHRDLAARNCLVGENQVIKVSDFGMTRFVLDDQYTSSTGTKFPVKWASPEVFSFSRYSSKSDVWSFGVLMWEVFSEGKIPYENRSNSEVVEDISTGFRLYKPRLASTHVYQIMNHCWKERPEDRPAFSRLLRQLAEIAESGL
Protocol: (§1) FIG. 6. […] Following stimulation the cells were stained with specific anti-ITK phosphotyrosine antibodies obtained from a commercial source (BD Biosciences) and following the manufacturer's instructions for intracytoplasmic staining. The stained samples were analyzed in a flow cytometer and the percent phosphorylation related to control (100%) was quantified. […] Fifty percent inhibition was achieved by approximately 1 μM peptide

ITK [2] = target: T3, ITK (Mus musculus, UniProt Q03526); assay: phosphorylation of ITK on Tyr 511 in mouse splenocytes (flow cytometry); format: cell-based; conditions: text does not separate Jurkat and mouse splenocytes, read-out: peptide concentration for fifty percent inhibition of ITK phosphorylation
T3 construct: endogenous in cells; host or cells: primary mouse splenic lymphocytes
T3 sequence (Q03526 1-625): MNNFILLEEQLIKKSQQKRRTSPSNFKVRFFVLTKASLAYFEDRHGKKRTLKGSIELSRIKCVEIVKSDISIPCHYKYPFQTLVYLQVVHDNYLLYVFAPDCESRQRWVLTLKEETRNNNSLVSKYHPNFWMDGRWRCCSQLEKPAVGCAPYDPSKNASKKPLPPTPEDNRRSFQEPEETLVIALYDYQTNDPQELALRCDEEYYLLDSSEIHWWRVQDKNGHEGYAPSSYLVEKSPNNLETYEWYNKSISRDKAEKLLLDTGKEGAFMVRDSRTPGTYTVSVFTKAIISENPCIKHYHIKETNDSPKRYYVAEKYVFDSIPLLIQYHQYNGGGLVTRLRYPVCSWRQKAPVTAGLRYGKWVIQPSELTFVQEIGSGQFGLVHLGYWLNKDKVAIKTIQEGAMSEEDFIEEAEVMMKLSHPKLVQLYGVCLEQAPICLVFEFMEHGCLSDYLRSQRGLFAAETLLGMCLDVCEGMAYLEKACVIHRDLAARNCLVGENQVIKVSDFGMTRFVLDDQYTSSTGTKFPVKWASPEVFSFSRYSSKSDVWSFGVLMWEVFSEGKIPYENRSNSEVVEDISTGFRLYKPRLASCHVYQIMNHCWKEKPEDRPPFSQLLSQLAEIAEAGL
Excerpt: In view of the significant degree of ITK-SLP 76 inhibition mediated by the exemplary arginine-SLP 76 peptide conjugate of the invention, henceforth called R9-QQP, the next question was whether the exemplary R9-QQP peptide can inhibit the phosphorylation of ITK. This is important because it represents an accurate index of ITK activity; see e.g., referenced (14), below. Furthermore, the data described above have been performed by using the Jurkat T cell line. Even though this is a very useful cellular model for research, it is a leukemic cell line and thus, data obtained with this model should be confirmed in a more normal physiological substrate. Therefore, we also tested the effect of R9-QQP on primary mouse splenic lymphocytes.
as §1

ITK-SLP76 interaction = target: T4, ITK-SLP76 interaction (Homo sapiens, UniProt Q08881); assay: inhibition of inducible ITK-SLP76 association in stimulated Jurkat cells (co-immunoprecipitation); format: cell-based
T4 construct: endogenous in cells; host or cells: Jurkat T cells
T4 sequence (Q08881 1-620): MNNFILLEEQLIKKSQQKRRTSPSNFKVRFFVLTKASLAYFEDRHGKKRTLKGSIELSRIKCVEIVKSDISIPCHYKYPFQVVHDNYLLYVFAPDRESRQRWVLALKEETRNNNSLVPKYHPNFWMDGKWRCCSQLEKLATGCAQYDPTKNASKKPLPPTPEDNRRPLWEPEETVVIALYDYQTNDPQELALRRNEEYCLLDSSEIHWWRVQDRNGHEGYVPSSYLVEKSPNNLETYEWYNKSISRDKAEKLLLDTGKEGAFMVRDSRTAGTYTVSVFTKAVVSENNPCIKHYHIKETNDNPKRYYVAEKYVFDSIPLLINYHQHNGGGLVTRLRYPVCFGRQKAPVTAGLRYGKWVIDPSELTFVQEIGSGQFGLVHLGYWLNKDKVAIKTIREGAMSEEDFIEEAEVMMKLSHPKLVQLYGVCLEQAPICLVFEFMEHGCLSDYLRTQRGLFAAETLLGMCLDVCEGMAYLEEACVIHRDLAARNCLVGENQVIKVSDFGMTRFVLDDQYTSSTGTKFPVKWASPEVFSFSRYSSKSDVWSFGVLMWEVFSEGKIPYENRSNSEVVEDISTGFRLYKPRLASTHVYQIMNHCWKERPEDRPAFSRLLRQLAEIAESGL
Protocol: (§2) FIG. 1. Inducible Association between ITK and SLP76: Jurkat T cells were stimulated through their TCR for various periods of time and then lysed. Lysates were treated with antibody to SLP-76 (IP: anti-SLP76) and the immune complexes were resolved by gel electrophoresis. The resolved proteins were transferred onto a membrane where ITK and SLP76 were visualized by probing with specific antibodies reactive with these proteins. First, ITK was probed (IB: anti-ITK) and subsequently SLP76 (IB: anti-SLP76). […] The interpretation is that ITK and SLP76 participate in a stimulation inducible signaling complex. Furthermore, the association of ITK and SLP76 in this complex is time dependent. It happens at one (1) minute post stimulation and then the two proteins dissociate.
(§3) FIG. 4. Inhibition of ITK-SLP76 inducible association by the polyArg-SLP76 peptide conjugate of the invention: We next addressed the important question of whether the presence of the exemplary SLP76 peptide of the invention disrupts the physical association between ITK and SLP76. Jurkat cells were stimulated as described under FIG. 1 above in the presence or absence of various concentrations of the exemplary Arg-conjugated SLP76 peptide of the invention. […] This index was calculated by correcting the ITK signals for the total of SLP 76 signal in each lane and then calculating the ratio over the non-stimulated control. […]

[3] = target: T5, Inducible T cell Kinase (ITK), endogenous in Jurkat T cells (human, UniProt Q08881 1-620); assay: competition in cells: co-IP of ITK with SLP76 from stimulated Jurkat cells against peptide concentration (association index, average of three experiments)
T5 construct: Endogenous intracellular ITK from Jurkat T cell lysates; The tie rests on Jurkat being a human T cell line
T5 sequence: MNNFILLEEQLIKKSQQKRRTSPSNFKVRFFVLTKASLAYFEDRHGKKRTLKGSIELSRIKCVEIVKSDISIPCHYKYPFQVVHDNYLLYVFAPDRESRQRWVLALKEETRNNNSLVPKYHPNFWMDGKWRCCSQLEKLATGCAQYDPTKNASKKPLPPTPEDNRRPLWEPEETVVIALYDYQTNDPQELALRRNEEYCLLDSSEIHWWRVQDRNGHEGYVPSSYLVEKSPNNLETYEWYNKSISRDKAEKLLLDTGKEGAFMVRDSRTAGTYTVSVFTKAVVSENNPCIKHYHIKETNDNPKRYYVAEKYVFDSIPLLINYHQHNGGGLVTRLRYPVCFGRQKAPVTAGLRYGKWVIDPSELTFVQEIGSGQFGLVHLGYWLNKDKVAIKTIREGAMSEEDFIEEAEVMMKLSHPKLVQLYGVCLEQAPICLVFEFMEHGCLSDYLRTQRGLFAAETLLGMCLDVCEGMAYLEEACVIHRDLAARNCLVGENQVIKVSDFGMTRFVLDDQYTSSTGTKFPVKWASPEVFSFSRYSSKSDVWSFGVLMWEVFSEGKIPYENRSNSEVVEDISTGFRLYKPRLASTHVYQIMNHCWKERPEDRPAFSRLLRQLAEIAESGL
Protocol: as §2, §3

[4] = target: T6, R9 (nine Arginine amino acids by themselves)
T6 chain: RRRRRRRRR

[5] = target: R9-Scrambled arginine-SLP 76 peptide conjugate (R9-SCR)
[6] = target: T5, Inducible T cell Kinase (ITK), …; assay: co-IP from TCR-stimulated Jurkat T cell lysates (IP anti-SLP76, IB anti-ITK)
Protocol: as §2

IC50 (ITK [1]): ~1000 nM | IC50 (ITK [2]): ~1000 nM | inhibition at 1 µM (ITK-SLP76 interaction; 1 μM of peptide, Jurkat cells stimulated 1 minute): ~50% | IC50 (ITK-SLP76 interaction; Jurkat cells, read-out: concentration for 50% inhibition in the ITK-SLP 76 association): ~1000 nM
Molecule: RRRRRRRRRQQPPVPPQRPMA [R9-QQP]
toxic effects on Jurkat cells (viability) (Jurkat cells): no toxic effects | Kd (SH3 domain of ITK): 770 nM

IC50 [3]: ~1000 nM
B1: R9-QQP, arginine-SLP76 peptide conjugate RRRRRRRRRQQPPVPPQRPMA (peptide)
peptide: RRRRRRRRRQQPPVPPQRPMA
notes: Synthetic cell-penetrating peptide; It was loaded into Jurkat cells or mouse splenocytes, or injected intraperitoneally into mice; A fluorescein-labelled version was used only for uptake studies, which are not recorded; also called Arg-SLP76 conjugate peptide; polyArg-SLP76 peptide conjugate

More lines, now with the values behind:

B2: ITK, endogenous in mouse splenic lymphocytes (protein)
chain: MNNFILLEEQLIKKSQQKRRTSPSNFKVRFFVLTKASLAYFEDRHGKKRTLKGSIELSRIKCVEIVKSDISIPCHYKYPFQTLVYLQVVHDNYLLYVFAPDCESRQRWVLTLKEETRNNNSLVSKYHPNFWMDGRWRCCSQLEKPAVGCAPYDPSKNASKKPLPPTPEDNRRSFQEPEETLVIALYDYQTNDPQELALRCDEEYYLLDSSEIHWWRVQDKNGHEGYAPSSYLVEKSPNNLETYEWYNKSISRDKAEKLLLDTGKEGAFMVRDSRTPGTYTVSVFTKAIISENPCIKHYHIKETNDSPKRYYVAEKYVFDSIPLLIQYHQYNGGGLVTRLRYPVCSWRQKAPVTAGLRYGKWVIQPSELTFVQEIGSGQFGLVHLGYWLNKDKVAIKTIQEGAMSEEDFIEEAEVMMKLSHPKLVQLYGVCLEQAPICLVFEFMEHGCLSDYLRSQRGLFAAETLLGMCLDVCEGMAYLEKACVIHRDLAARNCLVGENQVIKVSDFGMTRFVLDDQYTSSTGTKFPVKWASPEVFSFSRYSSKSDVWSFGVLMWEVFSEGKIPYENRSNSEVVEDISTGFRLYKPRLASCHVYQIMNHCWKEKPEDRPPFSQLLSQLAEIAEAGL
ITK Tyr 511 phosphorylation, flow cytometry, primary mouse splenic lymphocytes [4]: None of the two control peptides had significant effects on the phosphorylation of ITK in either Jurkat or primary mouse splenic lymphocytes | ITK Tyr 511 phosphorylation, flow cytometry, primary mouse splenic lymphocytes [5]: None of the two control peptides had significant effects on the phosphorylation of ITK in either Jurkat or primary mouse splenic lymphocytes

B3: SLP76, endogenous in Jurkat T cells (other, UniProt Q13094 1-533, looked up)
chain: MALRNVPFRSEVLGWDPDSLADYFKKLNYKDCEKAVKKYHIDGARFLNLTENDIQKFPKLRVPILSKLSQEINKNEERRSIFTRKPQVPRFPEETESHEEDNGGWSSFEEDDYESPNDDQDGEDDGDYESPNEEEEAPVEDDADYEPPPSNDEEALQNSILPAKPFPNSNSMYIDRPPSGKTPQQPPVPPQRPMAALPPPPAGRNHSPLPPPQTNHEEPSRSRNHKTAKLPAPSIDRSTKPPLDRSLAPFDREPFTLGKKPPFSDKPSIPAGRSLGEHLPKIQKPPLPPTTERHERSSPLPGKKPPVPKHGWGPDRRENDEDDVHQRPLPQPALLPMSSNTFPSRSTKPSPMNPLPSSHMPGAFSESNSSFPQSASLPPYFSQGPSNRPPIRAEGRNFPLPLPNKPRPPSPAEEENSLNEEWYVSYITRPEAEAALRKINQDGTFLVRDSSKKTTTNPYVLMVLYKDKVYNIQIRYQKESQVYLLGTGLRGKEDFLSVSDIIDYFRKMPLLLIDGKNRGSRYQCTLTHAAGYP
notes: whole, on cells; Endogenous intracellular adaptor protein, immunoprecipitated from Jurkat lysates with anti-SLP76 antibody
binding result [6]: binds
